Reference: ChEMBL document CHEMBL5579896, “Discovery of 2-Aryl-4-aminoquinazolin-Based LSD1 Inhibitors to Activate Immune Response in Gastric Cancer” (J Med Chem, 2024)
Active and inactive are the calls of the source. The rule behind the calls is not given here.

How the values were obtained:
BGC-823 [1] = experiment: Downregulation of PD-L1 expression in LSD1 knockout human BGC-823 cells at 2 to 8 uM incubated for 5 days by flow cytometry analysis; format: functional, cell-based; conditions: dose 2-8 µM, time 5.0 day
BGC-823 [2] = experiment: Downregulation of PD-L1 expression in human BGC-823 cells at 2 to 8 uM by Western blotting analysis; format: functional, cell-based; conditions: dose 2-8 µM, TDE = time-dependent effect
[3] = target: T1, Lysine-specific histone demethylase 2 (Homo sapiens, UniProt Q8NB78); experiment: Inhibition of LSD2 (unknown origin)
T1 sequence (Q8NB78 whole entry): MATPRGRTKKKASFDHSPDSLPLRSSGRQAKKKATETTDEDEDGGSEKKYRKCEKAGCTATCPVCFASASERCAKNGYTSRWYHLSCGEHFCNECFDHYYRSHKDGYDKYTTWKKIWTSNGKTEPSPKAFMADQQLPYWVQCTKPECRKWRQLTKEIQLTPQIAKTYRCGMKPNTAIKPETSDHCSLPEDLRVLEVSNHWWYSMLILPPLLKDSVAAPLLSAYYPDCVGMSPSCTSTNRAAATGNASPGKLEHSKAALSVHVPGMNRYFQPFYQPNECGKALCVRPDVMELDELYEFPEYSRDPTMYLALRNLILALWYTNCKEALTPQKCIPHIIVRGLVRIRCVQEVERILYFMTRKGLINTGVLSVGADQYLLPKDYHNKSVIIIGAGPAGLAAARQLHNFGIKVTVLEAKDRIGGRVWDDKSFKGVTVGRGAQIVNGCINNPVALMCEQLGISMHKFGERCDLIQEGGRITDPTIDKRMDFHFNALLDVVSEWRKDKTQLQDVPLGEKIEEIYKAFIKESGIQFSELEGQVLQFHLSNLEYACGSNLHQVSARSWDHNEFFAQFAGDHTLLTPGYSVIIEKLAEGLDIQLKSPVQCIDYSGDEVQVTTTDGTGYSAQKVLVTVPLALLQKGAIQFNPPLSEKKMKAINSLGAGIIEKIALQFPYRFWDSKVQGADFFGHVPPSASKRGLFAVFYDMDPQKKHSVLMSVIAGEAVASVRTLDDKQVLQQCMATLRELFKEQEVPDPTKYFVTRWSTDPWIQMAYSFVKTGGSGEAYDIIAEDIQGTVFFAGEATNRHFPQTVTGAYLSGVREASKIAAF

[4] = target: T2, Lysine-specific histone demethylase 2 (Homo sapiens) (UniProt Q8NB78); experiment: Inhibition of LSD2 (unknown origin) at 10 uM relative to control
T2 sequence (whole entry): T1 sequence (Q8NB78 whole entry)

BGC-823 [5] = experiment: Effect on H3K4me1 methylation in LSD1 knockout human BGC-823 cells at 2 to 8 uM by Western blotting analysis; format: functional, cell-based; conditions: dose 2-8 µM
BGC-823 [6] = experiment: Effect on LSD1 expression in human BGC-823 cells by Western blotting analysis; format: functional, cell-based
[7] = Toxicity in mouse implanted with MFC assessed as lung damage at 10 to 40 mg/kg/day, po administered daily for 2 weeks and measured every 2 days by H and E staining based assay; format: organism-based; conditions: in vivo, 336 h, dose 10-40 mg/kg/day
[8] = Drug uptake in ICR mouse plasma at 40 mg/kg, po; format: ADME, organism-based; conditions: in vivo
MFC [9] = experiment: Antitumor activity against MFC cells implanted in mouse assessed as increase in infiltration of CD4+ cells at 10 to 40 mg/kg/day, po administered daily for 2 weeks and measured every 2 days by immunohistochemistry assay; format: functional, organism-based; conditions: dose 10-40 mg/kg/day
[10] = target: T3, MAO-B (Amine oxidase [flavin-containing] B) (Homo sapiens, UniProt P27338); experiment: Inhibition of MAO-B (unknown origin) at 10 uM relative to control
T3 sequence (P27338 whole entry): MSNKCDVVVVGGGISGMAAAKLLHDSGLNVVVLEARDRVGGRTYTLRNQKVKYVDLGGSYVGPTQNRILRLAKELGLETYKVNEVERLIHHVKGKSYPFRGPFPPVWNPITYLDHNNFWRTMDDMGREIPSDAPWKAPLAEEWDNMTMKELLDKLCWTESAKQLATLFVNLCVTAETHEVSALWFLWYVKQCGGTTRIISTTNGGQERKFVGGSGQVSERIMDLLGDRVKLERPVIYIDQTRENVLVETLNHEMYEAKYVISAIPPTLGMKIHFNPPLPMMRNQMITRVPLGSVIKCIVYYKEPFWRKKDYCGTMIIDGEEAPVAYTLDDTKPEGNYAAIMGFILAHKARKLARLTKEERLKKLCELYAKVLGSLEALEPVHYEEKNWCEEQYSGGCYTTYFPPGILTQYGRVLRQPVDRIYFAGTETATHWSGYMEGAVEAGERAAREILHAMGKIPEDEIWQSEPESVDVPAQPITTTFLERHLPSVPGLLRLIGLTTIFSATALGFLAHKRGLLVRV

[11] = Toxicity in mouse implanted with MFC assessed as kidney damage at 10 to 40 mg/kg/day, po administered daily for 2 weeks and measured every 2 days by H and E staining based assay; format: organism-based; conditions: in vivo, 336 h, dose 10-40 mg/kg/day
[12] = Toxicity in mouse implanted with MFC assessed as heart damage at 10 to 40 mg/kg/day, po administered daily for 2 weeks and measured every 2 days by H and E staining based assay; format: organism-based; conditions: in vivo, 336 h, dose 10-40 mg/kg/day
MFC [13] = experiment: Downregulation of PD-L1 expression in MFC cells implanted in mouse at 10 to 40 mg/kg/day, po administered daily for 2 weeks and measured every 2 days by Western blotting analysis; format: functional, organism-based; conditions: dose 10-40 mg/kg/day
[14] = target: Programmed cell death protein 1/Programmed cell death 1 ligand 1 (Homo sapiens) (UniProt Q15116+Q9NZQ7); experiment: Inhibition of PD-1 to PD-L1 protein-protein interaction in human BGC-823 cells incubated for 5 days by DAPI staining based confocal microscopic analysis; format: cell-based; conditions: dose 2-8 µM, time 5.0 day
[15] = target: T4, Histone-lysine N-methyltransferase EHMT2 (Homo sapiens) (UniProt Q96KQ7); experiment: Inhibition of G9a (unknown origin)
T4 sequence (whole entry): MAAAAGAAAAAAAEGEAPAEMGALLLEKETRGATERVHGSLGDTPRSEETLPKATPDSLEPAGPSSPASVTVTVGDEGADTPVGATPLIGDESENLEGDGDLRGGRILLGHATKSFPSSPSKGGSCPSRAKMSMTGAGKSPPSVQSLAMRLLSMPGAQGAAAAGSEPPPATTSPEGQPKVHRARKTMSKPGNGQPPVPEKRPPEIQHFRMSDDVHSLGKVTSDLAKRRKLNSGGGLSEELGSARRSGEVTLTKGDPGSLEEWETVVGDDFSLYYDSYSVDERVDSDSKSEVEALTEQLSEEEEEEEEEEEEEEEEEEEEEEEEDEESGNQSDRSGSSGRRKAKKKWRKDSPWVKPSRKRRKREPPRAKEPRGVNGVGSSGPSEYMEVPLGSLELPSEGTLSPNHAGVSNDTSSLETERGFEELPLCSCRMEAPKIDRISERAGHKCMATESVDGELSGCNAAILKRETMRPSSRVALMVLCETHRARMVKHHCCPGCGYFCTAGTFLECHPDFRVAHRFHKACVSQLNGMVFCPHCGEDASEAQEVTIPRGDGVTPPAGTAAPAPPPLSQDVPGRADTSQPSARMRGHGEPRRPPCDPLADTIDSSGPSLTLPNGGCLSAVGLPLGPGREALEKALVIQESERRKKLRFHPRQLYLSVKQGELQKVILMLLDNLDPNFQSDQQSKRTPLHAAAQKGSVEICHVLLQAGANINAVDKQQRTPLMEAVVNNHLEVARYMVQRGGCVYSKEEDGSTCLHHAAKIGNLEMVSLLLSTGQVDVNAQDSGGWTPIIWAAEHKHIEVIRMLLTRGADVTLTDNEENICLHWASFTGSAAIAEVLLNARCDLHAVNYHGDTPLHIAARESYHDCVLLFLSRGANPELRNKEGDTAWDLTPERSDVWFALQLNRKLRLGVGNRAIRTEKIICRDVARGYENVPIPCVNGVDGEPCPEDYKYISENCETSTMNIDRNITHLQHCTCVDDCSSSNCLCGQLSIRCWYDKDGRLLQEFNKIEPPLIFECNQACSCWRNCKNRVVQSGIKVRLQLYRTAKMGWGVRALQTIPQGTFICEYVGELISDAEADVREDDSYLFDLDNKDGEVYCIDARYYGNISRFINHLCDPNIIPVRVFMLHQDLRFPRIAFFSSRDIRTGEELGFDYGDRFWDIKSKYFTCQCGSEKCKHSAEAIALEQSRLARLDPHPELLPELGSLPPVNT

[16] = target: T5, Amine oxidase [flavin-containing] A (Homo sapiens, UniProt P21397); experiment: Inhibition of MAO-A (unknown origin)
T5 sequence (P21397 whole entry): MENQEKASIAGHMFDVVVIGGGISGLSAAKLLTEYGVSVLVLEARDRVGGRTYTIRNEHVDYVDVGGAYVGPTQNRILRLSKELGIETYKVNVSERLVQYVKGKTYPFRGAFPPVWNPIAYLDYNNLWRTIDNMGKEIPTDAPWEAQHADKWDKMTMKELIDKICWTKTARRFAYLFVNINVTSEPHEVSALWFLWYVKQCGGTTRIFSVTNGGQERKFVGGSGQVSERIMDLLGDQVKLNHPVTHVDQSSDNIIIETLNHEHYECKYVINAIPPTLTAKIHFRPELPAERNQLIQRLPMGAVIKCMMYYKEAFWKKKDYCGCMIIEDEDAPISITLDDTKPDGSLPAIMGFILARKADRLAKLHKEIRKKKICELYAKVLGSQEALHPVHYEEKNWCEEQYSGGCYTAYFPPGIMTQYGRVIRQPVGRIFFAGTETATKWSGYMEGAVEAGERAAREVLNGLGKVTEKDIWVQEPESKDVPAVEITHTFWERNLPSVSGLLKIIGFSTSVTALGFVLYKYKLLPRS

[17] = Toxicity in mouse implanted with MFC assessed as reduction in body weight at 10 to 40 mg/kg/day, po administered daily for 2 weeks and measured every 2 days; format: organism-based; conditions: in vivo, 336 h, dose 10-40 mg/kg/day
MFC [18] = experiment: Antitumor activity against MFC cells implanted in mouse assessed as reduction in tumor size at 10 to 40 mg/kg/day, po administered daily for 2 weeks and measured every 2 days; format: functional, organism-based; conditions: dose 10-40 mg/kg/day
[19] = Half-life in ICR mouse at 40 mg/kg, po measured upto 24 hrs by LC-MS/MS analysis; format: ADME, organism-based; conditions: in vivo

## CCN(CC)c1ccc(Nc2nc(-c3ccc(S(C)(=O)=O)cc3)nc3ccccc23)cc1
BGC-823 [1]
  Activity: inactive
BGC-823 [2]
  Activity: Tde
[3]
  IC50: > 10 µM
[4]
  inhibition: < 10%
BGC-823 [5]
  Activity: inactive
BGC-823 [6]
  Activity: inactive
[7]
  Activity: Non-Toxic
[8]
  Drug uptake: Active
MFC [9]
  Activity: Active
[10]
  inhibition at 10 µM: < 10%
[11]
  Activity: Non-Toxic
[12]
  Activity: Non-Toxic
MFC [13]
  Activity: Active
[14]
  inhibition: Dose-Dependent Effect
[15]
  inhibition: inactive
[16]
  IC50: > 10 µM
[17]
  Activity: Non-Toxic
MFC [18]
  Activity: Active
[19]
  half-life: 1.22 h
